Assay results from US20080107623A1, “Inhibitors of Hepatitis C Virus” (Bristol-Myers Squibb Company, priority 2006, published 2008).

Key:
[1] = target: T1, HCV NS3/4A protease complex, BMS strain (UniProt P27958, species not given/STRAIN_BMS); test: FRET peptide assay to monitor HCV NS3/4A proteolytic activity (BMS strain); format: biochemical, HCV genotype 1a; settings: NS3/4A BMS strain; read-out: IC50 Activity Range
T1 construct: said of H77 and J4L6S, not expressly of BMS; These are given for the H77 and J4L6S constructs only
T1 sequence (P27958 1027-1657, change not shown, one chain of several): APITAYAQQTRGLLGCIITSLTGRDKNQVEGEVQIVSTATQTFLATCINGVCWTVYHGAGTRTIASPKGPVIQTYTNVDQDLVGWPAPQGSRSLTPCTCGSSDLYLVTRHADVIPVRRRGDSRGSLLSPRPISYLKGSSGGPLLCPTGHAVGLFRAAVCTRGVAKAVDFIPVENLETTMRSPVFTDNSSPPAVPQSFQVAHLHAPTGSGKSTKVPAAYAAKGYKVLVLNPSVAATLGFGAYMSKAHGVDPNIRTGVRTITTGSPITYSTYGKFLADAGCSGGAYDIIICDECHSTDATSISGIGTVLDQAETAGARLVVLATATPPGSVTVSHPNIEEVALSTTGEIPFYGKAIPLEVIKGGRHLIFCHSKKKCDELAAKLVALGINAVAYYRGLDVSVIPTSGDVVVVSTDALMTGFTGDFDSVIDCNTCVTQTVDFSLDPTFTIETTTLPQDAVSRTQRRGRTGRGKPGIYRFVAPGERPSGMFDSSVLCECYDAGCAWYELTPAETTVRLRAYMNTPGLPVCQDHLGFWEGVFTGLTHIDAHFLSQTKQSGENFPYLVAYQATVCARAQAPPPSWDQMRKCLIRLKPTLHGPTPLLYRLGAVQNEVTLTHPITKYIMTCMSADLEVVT
Description: HCV NS3 protease complexes, derived from the BMS strain, H77 strain or J4L6S strain, were generated, as described below. These purified recombinant proteins were generated for use in a homogeneous assay (see below) to provide an indication of how effective compounds of the present disclosure would be in inhibiting HCV NS3 proteolytic activity.
Serum from an HCV-infected patient was obtained from Dr. T. Wright, San Francisco Hospital. An engineered full-length cDNA (compliment deoxyribonucleic acid) template of the HCV genome (BMS strain) was constructed from DNA fragments obtained by reverse transcription-PCR (RT-PCR) of serum RNA (ribonucleic acid) and using primers selected on the basis of homology between other genotype 1a strains. From the determination of the entire genome sequence, a genotype 1a was assigned to the HCV isolate according to the classification of Simmonds et al. (See P Simmonds, K A Rose, S Graham, S W Chan, F McOmish, B C Dow, E A Follett, P L Yap and H Marsden, J. Clin. Microbiol., 31(6), 1493-1503 (1993)). […] The infectious clones, H77 (1a genotype) and J4L6S (1b genotype) were obtained from R. Purcell (NIH) and the sequences are published in Genbank (AAB67036, see Yanagi, M., Purcell, R. H., Emerson, S. U. and Bukh, J. Proc. Natl. Acad. Sci. U.S.A. 94(16),8738-8743 (1997); AF054247, see Yanagi, M., St Claire, M., Shapiro, M., Emerson, S. U., Purcell, R. H. and Bukh, J, Virology 244 (1), 161-172. (1998)).
NS3/4A protease complex-containing fractions were pooled and loaded on a desalting column Superdex-S200 pre-equilibrated with buffer D (25 mM HEPES, pH 7.5, 20% glycerol, 300 mM NaCl, 0.2% Triton X-100, 10 mM βME). Sample was loaded at a flow rate of 1 mL/min. NS3/4A protease complex-containing fractions were pooled and concentrated to approximately 0.5 mg/ml. The purity of the NS3/4A protease complexes, derived from the BMS, H77 and J4L6S strains, were judged to be greater than 90% by SDS-PAGE and mass spectrometry analyses. The enzyme was stored at −80° C., thawed on ice and diluted prior to use in assay buffer.
The purpose of this in vitro assay was to measure the inhibition of HCV NS3 protease complexes, derived from the BMS strain, H77 strain or J4L6S strain, as described above, by compounds of the present disclosure. This assay provides an indication of how effective compounds of the present disclosure would be in inhibiting HCV NS3 proteolytic activity.
In order to monitor HCV NS3/4A protease activity, an NS3/4A peptide substrate was used. The substrate was RET SI (Resonance Energy Transfer Depsipeptide Substrate; AnaSpec, Inc. cat #22991) (FRET peptide), described by Taliani et al. in Anal. Biochem. 240(2):60-67 (1996). […] The peptide also contains a fluorescence donor, EDANS, near one end of the peptide and an acceptor, DABCYL, near the other end. The fluorescence of the peptide is quenched by […] resonance energy transfer (RET) between the donor and the acceptor, but as the NS3 protease cleaves the peptide the products are released from RET quenching and the fluorescence of the donor becomes apparent.
The peptide substrate was incubated with one of the three recombinant NS3/4A protease complexes, in the absence or presence of a compound of the present disclosure. The inhibitory effects of a compound was determined by monitoring the formation of fluorescent reaction product in real time using a Cytofluor Series 4000. […]

[2] = tested on: HCV replicon in HUH-7 cells; test: HCV replicon FRET assay; format: cell-based, HCV strain 1b; settings: Hepatitis C virus, Huh-7; HCV replicon; which replicon assay not stated; read-out: EC50 Activity Range
Description: An HCV replicon whole cell system was established as described by Lohmann V, Korner F, Koch J, Herian U, Theilmann L, Bartenschlager R., Science 285(5424):110-3 (1999). This system enabled us to evaluate the effects of our HCV Protease compounds on HCV RNA replication. Briefly, using the HCV strain 1b sequence described in the Lohmann paper (Assession number: AJ238799), an HCV cDNA was synthesized by Operon Technologies, Inc. (Alameda, Calif.), and the full-length replicon was then assembled in plasmid pGem9zf(+) (Promega, Madison, Wis.) using standard molecular biology techniques. The replicon consists of (i) the HCV 5′ UTR fused to the first 12 amino acids of the capsid protein, (ii) the neomycin phosphotransferase gene (neo), (iii) the IRES from encephalomyocarditis virus (EMCV), and (iv) HCV NS3 to NS5B genes and the HCV 3′ UTR. Plasmid DNAs were linearized with ScaI and RNA transcripts were synthesized in vitro using the T7 MegaScript transcription kit (Ambion, Austin, Tex.) according to manufacturer's directions. In vitro transcripts of the cDNA were transfected into the human hepatoma cell line, HUH-7. […] Resulting cell lines were characterized for positive and negative strand RNA production and protein production over time.
The HCV replicon FRET assay was developed to monitor the inhibitory effects of compounds described in the disclosure on HCV viral replication. HUH-7 cells, constitutively expressing the HCV replicon, were grown in Dulbecco's Modified Eagle Media (DMEM) (Gibco-BRL) containing 10% Fetal calf serum (FCS) (Sigma) and 1 mg/ml G418 (Gibco-BRL). Cells were seeded the night before (1.5×10^4 cells/well) in 96-well tissue-culture sterile plates. Compound and no compound controls were prepared in DMEM containing 4% FCS, 1:100 Penicillin/Streptomysin (Gibco-BRL), 1:100 L-glutamine and 5% DMSO in the dilution plate (0.5% DMSO final concentration in the assay). Compound/DMSO mixes were added to the cells and incubated for 4 days at 37° C. After 4 days, cells were first assessed for cytotoxicity using alamar Blue (Trek Diagnotstic Systems) for a CC50 reading. The toxicity of compound (CC50) was determined by adding 1/10th volume of alamar Blue to the media incubating the cells. After 4 hours, the fluorescence signal from each well was read, with an excitation wavelength at 530 nm and an emission wavelength of 580 nm, using the Cytofluor Series 4000 (Perspective Biosystems). Plates were then rinsed thoroughly with Phosphate-Buffered Saline (PBS) (3 times 150 μl). The cells were lysed with 25 μl of a lysis assay reagent containing an HCV protease substrate (5× cell Luciferase cell culture lysis reagent (Promega #E153A) diluted to 1× with distilled water, NaCl added to 150 mM final, the FRET peptide substrate (as described for the enzyme assay above) diluted to 10 μM final from a 2 mM stock in 100% DMSO. […]. The plate was then placed into the Cytofluor 4000 instrument which had been set to 340 nm excitation/490 nm emission, automatic mode for 21 cycles and the plate read in a kinetic mode. EC50 determinations were carried out as described for the IC50 determinations.

Structure (SMILES)	IC50 [1]	EC50 [2]	melting point
CC(C)(C)OC(=O)N[C@H]1CCCOC/C=C\[C@@H]2C[C@@]2(C(=O)NS(=O)(=O)C2CC2)NC(=O)[C@@H]2C[C@@H](OCc3ccccc3)CN2C1=O [Compound 5, (1S,4R,6S,14S,18R,7-cis)-18-benzyloxy-14-tert-butoxycarbonylamino-4-cyclopropanesulfonylaminocarbonyl-2,15-dioxo-3,16-diaza-10-oxatricyclo[14.3.0.0^4,6]nonadec-7-ene]	< 0.1 µM	> 1 µM	147 to 149 °C
CC(C)(C)OC(=O)N[C@H]1CCCOC/C=C\[C@@H]2C[C@@]2(C(=O)NS(=O)(=O)C2CC2)NC(=O)[C@@H]2C[C@@H](OC(C)(C)C)CN2C1=O [Compound 6, (1S,4R,6S,14S,18R,7-cis)-18-tert-butoxy-14-tert-butoxycarbonylamino-4-cyclopropanesulfonylaminocarbonyl-2,15-dioxo-3,16-diaza-10-oxatricyclo[14.3.0.0^4,6]nonadec-7-ene]	0.1 to 1 µM	> 1 µM	–
CC(C)(C)OC(=O)N[C@H]1CCCCC/C=C\[C@@H]2C[C@@]2(C(=O)NS(=O)(=O)C2CC2)NC(=O)[C@@H]2C[C@@H](Oc3ccccn3)CN2C1=O [Compound 1]	< 0.1 µM	0.1 to 1 µM	–
CC(C)(C)OC(=O)N[C@H]1CCCCC/C=C\[C@@H]2C[C@@]2(C(=O)NS(=O)(=O)C2CC2)NC(=O)[C@@H]2C[C@@H](Oc3ccc([N+](=O)[O-])cc3)CN2C1=O [Compound 2]	< 0.1 µM	> 1 µM	–
